Reference: patent publication US8927500B2, “Peptidomimetic macrocycles” (Aileron Therapeutics, Inc., priority 2012, dated 2015)
Where a SMILES comes first, the peptide text is derived from it. Bridges are numbered along the chain shown (N, C = ends). [ ]: non-standard residue; d: D form. R8 = C=CCCCCCC[C@@](C)(N)C(=O)O; S5 = C=CCCC[C@](C)(N)C(=O)O

What was measured:
Caspase 3 = Caspase 3 detection assay in SJSA1 cells; type: cell-based; conditions: 48 h, Caspase 3 activation over DMSO-treated cells; for caspase 0.3 uM: 0.3 uM peptide; for caspase 3 uM: 3 uM peptide; for caspase 10 uM: 10 uM peptide; for caspase 30 uM: 30 uM peptide
SJSA-1 cells = assay: Cell lysis by peptidomimetic macrocycles (LDH release); type: cell-based; conditions: 1 h at 37C
Procedure: On the day of the assay, media was exchanged with RPMI 1% FBS media, 90 uL of media per well.
10 mM stock solutions of the peptidomimetic macrocycles were prepared in 100% DMSO.
The negative control (non-lytic) sample was 0.5% DMSO alone and positive control (lytic) samples include 10 uM Melittin and 1% Triton X-100.
Cell plates were incubated for 1 hour at 37C. After the 1 hour incubation, the morphology of the cells is examined by microscope and then the plates were centrifuged at 1200 rpm for 5 minutes at room temperature. 40 uL of supernatant for each peptidomimetic macrocycle and control sample is transferred to clear assay plates.

MDMX = target: T1, MDMX (Homo sapiens, UniProt O15151); assay: Competitive fluorescence polarization assay for MDMX; type: binding; conditions: competitive FP assay; for IC50: read-out: IC50 (MDMX); for Ki: read-out: Ki (MDMX)
T1 sequence (O15151 1-125): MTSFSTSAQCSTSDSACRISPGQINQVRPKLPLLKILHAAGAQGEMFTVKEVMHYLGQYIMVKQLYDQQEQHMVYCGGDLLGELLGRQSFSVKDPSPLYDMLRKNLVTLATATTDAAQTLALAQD

MDM2 = MDM2 (Homo sapiens, UniProt Q00987); assay: Competitive fluorescence polarization assay for MDM2; type: binding; conditions: competitive FP assay, MDM2; for IC50: read-out: IC50 (MDM2); for Ki: read-out: Ki (MDM2)
Chain of MDM2 (Q00987 1-125): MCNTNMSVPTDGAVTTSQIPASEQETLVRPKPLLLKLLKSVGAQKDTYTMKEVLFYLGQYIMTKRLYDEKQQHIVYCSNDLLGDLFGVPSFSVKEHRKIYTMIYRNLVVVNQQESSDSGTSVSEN

Row | IC50 (MDMX) [nM] | Ki (MDMX) [nM] | IC50 (MDM2) [nM] | Ki (MDM2) [nM] | Structure (SMILES) | caspase 0.3 uM (Caspase 3) | caspase 3 uM (Caspase 3) | caspase 10 uM (Caspase 3) | caspase 30 uM (Caspase 3) | 6.25 uM % Lysed cells (1 h LDH) (SJSA-1 cells) [%] | 25 uM % Lysed cells (1 h LDH) (SJSA-1 cells) [%] | 50 uM % Lysed cells (1 h LDH) (SJSA-1 cells) [%]
1 | 100 to 1000 | 10 to 100 | < 10 | < 10 | CC(=O)N[C@@H](CCC(=O)O)C(=O)N[C@H](C(=O)N[C@@H](Cc1ccccc1)C(=O)N[C@]1(C)CCCCCCC=CCCC[C@@](C)(C(=O)N[C@@H](CO)C(=O)N[C@@H](C)C(=O)N[C@@H](C)C(N)=O)NC(=O)[C@H](CC(C)C)NC(=O)[C@H](CCC(N)=O)NC(=O)[C@H](C)NC(=O)[C@H](Cc2c[nH]c3ccccc23)NC(=O)[C@H](Cc2ccc(O)cc2)NC(=O)[C@H](C(C)C)NC1=O)[C@@H](C)O [compound 125] (Ac-ETF[R8]VYWAQL[S5]SAA-NH2; staple 4-11) | 1 | 3 | 9 | 29 | 0 | 0 | 2
2 | 100 to 1000 | 10 to 100 | < 10 | < 10 | CC(=O)N[C@@H](CCC(=O)O)C(=O)N[C@H](C(=O)N[C@@H](Cc1ccccc1)C(=O)N[C@]1(C)CCCCCCC=CCCC[C@@](C)(C(=O)N[C@@H](CO)C(=O)N[C@H](C(=O)N[C@@H](C)C(N)=O)C(C)C)NC(=O)[C@H](CC(C)C)NC(=O)[C@H](CCC(N)=O)NC(=O)[C@H](C)NC(=O)[C@H](Cc2c[nH]c3ccccc23)NC(=O)[C@H](Cc2ccc(O)cc2)NC(=O)[C@H](C(C)C)NC1=O)[C@@H](C)O [compound 126] (Ac-ETF[R8]VYWAQL[S5]SVA-NH2; staple 4-11) | 1 | 1 | 6 | 30 | 1 | 1 | 1

The remaining lines, values behind:

Row | Structure (SMILES) | IC50 (MDMX) [nM] | Ki (MDMX) [nM] | IC50 (MDM2) [nM] | Ki (MDM2) [nM] | caspase 0.3 uM (Caspase 3) | caspase 3 uM (Caspase 3) | caspase 10 uM (Caspase 3) | caspase 30 uM (Caspase 3) | 6.25 uM % Lysed cells (1 h LDH) (SJSA-1 cells) [%] | 25 uM % Lysed cells (1 h LDH) (SJSA-1 cells) [%] | 50 uM % Lysed cells (1 h LDH) (SJSA-1 cells) [%]
3 | CC(=O)N[C@@H](CC(C)C)C(=O)N[C@H](C(=O)N[C@@H](Cc1ccccc1)C(=O)N[C@]1(C)CCCCCCC=CCCC[C@@](C)(C(=O)N[C@@H](CO)C(=O)N[C@H](C(=O)N[C@@H](CO)C(N)=O)C(C)C)NC(=O)[C@H](CC(C)C)NC(=O)[C@H](CCC(N)=O)NC(=O)[C@H](C)NC(=O)[C@H](Cc2c[nH]c3ccccc23)NC(=O)[C@H](Cc2ccc(O)cc2)NC(=O)[C@H](C)NC1=O)[C@@H](C)O [compound 121] (Ac-LTF[R8]AYWAQL[S5]SVS-NH2; staple 4-11) | 100 to 1000 | 10 to 100 | < 10 | < 10 | 1 | 5 | 19 | 30 | 1 | 1 | 7
4 | CC(=O)N[C@@H](CC(C)C)C(=O)N[C@H](C(=O)N[C@@H](Cc1ccccc1)C(=O)N[C@]1(C)CCCCCCC=CCCC[C@@](C)(C(=O)N[C@@H](CO)C(=O)N[C@@H](C)C(=O)N[C@@H](CO)C(N)=O)NC(=O)[C@H](CC(C)C)NC(=O)[C@H](CCC(N)=O)NC(=O)[C@H](C)NC(=O)[C@H](Cc2c[nH]c3ccccc23)NC(=O)[C@H](Cc2ccc(O)cc2)NC(=O)[C@H](C)NC1=O)[C@@H](C)O [compound 122] (Ac-LTF[R8]AYWAQL[S5]SAS-NH2; staple 4-11) | 100 to 1000 | 10 to 100 | < 10 | < 10 | 1 | 2 | 15 | 30 | 1 | 0 | 6
5 | CC(=O)N[C@@H](CC(C)C)C(=O)N[C@H](C(=O)N[C@@H](Cc1ccccc1)C(=O)N[C@]1(C)CCCCCCC=CCCC[C@@](C)(C(=O)N[C@@H](CO)C(=O)N[C@H](C(=O)NCC(N)=O)C(C)C)NC(=O)[C@H](CC(C)C)NC(=O)[C@H](CCC(N)=O)NC(=O)[C@H](C)NC(=O)[C@H](Cc2c[nH]c3ccccc23)NC(=O)[C@H](Cc2ccc(O)cc2)NC(=O)[C@H](C)NC1=O)[C@@H](C)O [compound 123] (Ac-LTF[R8]AYWAQL[S5]SVG-NH2; staple 4-11) | 100 to 1000 | 10 to 100 | < 10 | < 10 | 1 | 1 | 6 | 14 | −2 | 5 | 3
